The supplement of paper PMC10331698
± gives the standard deviation of the averaged measurements.

Key:
Assay in all cases: level (log10 ratio to DMSO vehicle control); higher = higher biomarker level / cell amount than vehicle control
Conditions in all cases: in DMSO
Hexafluoroglutaric acid = compound: O=C(O)C(F)(F)C(F)(F)C(F)(F)C(=O)O [Hexafluoroglutaric acid]
Experimental: (§1)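 BioMAP Diversity Plus panel of 12 human primary cell co-culture systems (3C, 4H, LPS, SAg, BT, BF4T, BE3C, CASM3C, HDF3CGF, KF3CT, MyoF, Mphg). Compounds were added 1 h before stimulation and left for 24 h (MyoF 48 h; BT 72 h for soluble read-outs or 6 d for IgG). Biomarkers were read by ELISA, cytotoxicity by SRB, PBMC viability and proliferation by Alamar Blue. Each well value was divided by the mean of 8 DMSO control wells on the same plate and log10 transformed; duplicate blinded samples were tested at 4 concentrations.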

[1] = compound: O=S(=O)(O)C(F)(F)C(F)(F)C(F)(F)C(F)(F)F [Perfluorobutanesulfonic acid]
Experimental: as §1

[2] = compound: C=C(C)C(=O)OCC(F)(F)C(F)(F)C(F)(F)C(F)(F)C(F)(F)C(F)(F)C(F)(F)F
Experimental: as §1

Test System	level (log10) (Hexafluoroglutaric acid; 6700 nM)	level (log10) (Hexafluoroglutaric acid; 20000 nM)	level (log10) (Hexafluoroglutaric acid; 60000 nM)	level (log10) ([1]; 6700 nM)	level (log10) ([1]; 20000 nM)	level (log10) ([1]; 60000 nM)	level (log10) ([2]; 6700 nM)	level (log10) ([2]; 20000 nM)
BE3C:CD54/ICAM-1	0.018 ± 0.0042	0.0095 ± 0.018	0.009 ± 0.02	-0.0185 ± 0.0021	-0.009 ± 0.0028	-0.021 ± 0.0057	0.007 ± 0.0014	0.006 ± 0.0085
LPS:CD106/VCAM-1	-0.006 ± 0.016	-0.015 ± 0.024	-0.005 ± 0.0071	-0.0055 ± 0.012	0.0175 ± 0.011	0.03 ± 0.0014	-0.021 ± 0.05	-0.0085 ± 0.046
BE3C:CXCL11/I-TAC	0.0045 ± 0.028	-0.002 ± 0.024	0.0045 ± 0.013	0.0115 ± 0.012	0.0065 ± 0.00071	0.007 ± 0.0071	-0.0085 ± 0.016	-0.0095 ± 0.0021
4H:CCL2/MCP-1	-0.0095 ± 0.032	-0.0135 ± 0.011	0.0245 ± 0.047	-0.021 ± 0.0042	-0.0095 ± 0.023	-0.017 ± 0.018	-0.0415 ± 0.0092	-0.005 ± 0.061
BF4T:CXCL8/IL-8	0.0125 ± 0.039	0.009 ± 0.041	0.0345 ± 0.0035	-0.0205 ± 0.0064	0.006 ± 0.0057	0.0095 ± 0.013	0.011 ± 0.013	0.007 ± 0.0099
LPS:M-CSF	0.024 ± 0.047	-0.019 ± 0.028	-0.034 ± 0.051	0.021 ± 0.016	-0.0035 ± 0.00071	0.01 ± 0.014	0.005 ± 0.017	0.03 ± 0.017
4H:CD87/uPAR	-0.046 ± 0.023	-0.027 ± 0.057	-0.005 ± 0.031	0.0115 ± 0.052	0.0235 ± 0.022	0.025 ± 0.021	-0.019 ± 0.025	-0.0015 ± 0.028
SAg:PBMC Cytotoxicity	0.0035 ± 0.0078	0.014 ± 0.0042	-0.005 ± 0.058	-0.029 ± 0.038	-0.0315 ± 0.036	0.023 ± 0.024	0.0115 ± 0.005	0.0265 ± 0.046
LPS:CD40	0 ± 0.0028	-0.0035 ± 0.035	0.0085 ± 0.046	-0.0395 ± 0.00071	-0.0375 ± 0.029	-0.0555 ± 0.052	-0.03 ± 0.024	-0.0145 ± 0.021
SAg:Proliferation	-0.019 ± 0.0071	-0.0445 ± 0.033	-0.0275 ± 0.013	-0.0295 ± 0.11	-0.0385 ± 0.023	0.039 ± 0.017	0.0015 ± 0.0064	0.0185 ± 0.0092
LPS:CXCL8/IL-8	-0.0235 ± 0.012	-0.0535 ± 0.018	-0.028 ± 0.067	0.0225 ± 0.019	0.0125 ± 0.021	0.0765 ± 0.00071	-0.0045 ± 0.0092	0.033 ± 0.011
LPS:CD69	-0.003 ± 0.011	-0.014 ± 0.0099	0.0075 ± 0.0021	-0.0405 ± 0.061	0.0155 ± 0.05	0.0825 ± 0.023	-0.0065 ± 0.069	0.0095 ± 0.067
LPS:sTNF-alpha	0.0045 ± 0.026	-0.0025 ± 0.022	0.0035 ± 0.0064	0.002 ± 0.028	-0.0175 ± 0.023	-0.0075 ± 0.026	0.0045 ± 0.088	0.0175 ± 0.011
BT:sTNF-alpha	0.026 ± 0.13	0.0415 ± 0.039	0.116 ± 0.039	0.0295 ± 0.011	0.0515 ± 0.071	0.015 ± 0.011	-0.042 ± 0.0099	-0.0145 ± 0.013
3C:Proliferation	-0.0055 ± 0.0064	-0.009 ± 0.068	-0.0155 ± 0.054	-0.002 ± 0.0014	0.017 ± 0.031	-0.0525 ± 0.023	-0.0365 ± 0.039	-0.0595 ± 0.037
BF4T:SRB	-0.005 ± 0.0028	-0.0065 ± 0.0021	-0.0015 ± 0.0078	-0.006 ± 0.0099	-0.0085 ± 0.005	-0.009 ± 0.0028	0.0005 ± 0.0078	-0.005 ± 0.011
LPS:CD141/Thrombomodulin	0.002 ± 0.0071	-0.022 ± 0.021	-0.0355 ± 0.032	-0.048 ± 0.0085	-0.0045 ± 0.015	-0.024 ± 0.031	0.0115 ± 0.019	-0.015 ± 0.025
